# Tests used:
# neurons = neurons grown on surface (Holmes 2000); cited from earlier work
# [1] = tested on: bone defects of 4 mm diameter in rat skull; assay: Rat skull bone defect filled with hydrogel, bone formation evaluation; type: in vivo; conditions: grade 1 more than 80%, 2 more than 50%, 3 weak in X-ray
# Protocol: The effects of the functionalized peptide were evaluated in vivo in rats. 6 weeks male rat sculls were used for this evaluation (two samples for each experiment).
# The rats in this study underwent creation of two bone defects of 4 mm diameter, bilaterally in each skull. Some of the defects were left empty as controls.
# The peptide solution was directly injected to the defects without cells. The peptide solution formed a hydrogel immediately after injection by the salt in the body fluid (e.g., blood, lymph fluid, and the like).
# Bone Formation Evaluation: All animals from each group were euthanized 2 and 4 weeks later. The X-ray image of the skulls were taken. The skulls were collected, hemisected, and fixed in formalin. The defects were then trimmed, decalcified, embedded in paraffin, stained by HE staining method, and evaluated by a Veterinary pathologist, who characterized by histomorphometry the type of tissue contained within the defects. The degree of bone regeneration is graded as Complete recovery, 1 (more than 80%), 2 (more than 50%), or 3 (weak in X-ray).
# [2] = tested on: chick Chorioallantoic Membrane; assay: Chorioallantoic Membrane (CAM) assay of angiogenesis; type: in vivo, chicken; conditions: hydrogel placed Day 8, histology Day 12, FIG. 30
# Protocol: In vivo study of angiogenesis was performed using Chorioallantoic Membrane (CAM) assay. At Day 8 of fertilized chicken egg incubation, hydrogels of 10 mm diameter with 1 mm thickness were transferred to chick Chorioallantoic Membrane. The hydrogels were selected from Table 19 and gels were formed before the transfer. On Day 12, CAMs were collected for histology. The angiogenesis inside and below the hydrogel were evaluated by histological cross section.
# Liver progenitor cells = conditions: encapsulated liver progenitor cells (Semino 2003); cited from earlier work
# [3] = tested on: Mouse preosteoblast cell line (MC3T3-E1); assay: Osteocalcin secreted in culture medium (EIA); type: cell-based; conditions: FIG. 17 compared to FIG. 6; versus PRGmx or PRFmx
# Protocol: Mouse preosteoblast cell line (MC3T3-E1) was used to compare the proliferation and differentiation effects of the motifs with RAD16-1 and Collagen-I hydrogels as controls. The proliferation was measured by DNA contents and the differentiation effects were evaluated using Alkaline phosphatase (ALP) activity and secreted Osteocalcin. Alkaline phosphatase is known to be differentiation marker of osteoblast in earlier stage. Secreted Osteocalcin is known to be differentiation marker of osteoblast in later stage and its activity is correlated with the bone mineralization.
# 1% RAD16-I solution [self-assembling peptide solution] was obtained as RAD16-I (Puramatrix™, 3DM Inc./BD Bioscience). The functionalized peptides of Table 2 were dissolved in water at final concentration of 1% (v/w). The functionalized peptide solutions were then mixed with 1% RAD16-I solution at a ratio of 1:1 (Table 4). Each peptide solution was loaded in the Culture plate inserts (10 mm diameter, Millicell-CM, Millipore). […]
# Cell proliferation was evaluated using DNA contents in the hydrogel using PicoGreen dsDNA Kits (Molecular Probes). ALP activity was quantitatively measured from cell lysis using Alkaline Phosphatase Fluorescence Assay Kit (Sigma). Osteocalcin was measured from cell culture medium using Mouse Osteocalcin EIA Kit (Biomedical Technologies Inc.).
# MC3T3-E1 cells = assay: Three dimensional culturing of MC3T3-E1 in hydrogel (Calcein AM, confocal); type: cell-based, mouse; conditions: 14 days of culture; compared to RAD16-1; FIGS. 13A-13D
# Protocol: Three dimensional culturing experiment. MC3T3-E1 cells were obtained and grown to be seeded using the same protocol as described in Example 1. Cells were centrifuged and re-suspended into sucrose solution (10%) at 4×10^6 cells/ml. FHR peptide was dissolved into water to provide a 1.0% w/t solution. 1% RAD16-I solution was obtained as RAD16-I (Puramatrix™, 3DM Inc./BD Bioscience). The pH of the FHR peptide solution was adjusted to pH 5.7 by NaOH solution (i.e., so that cells can be mixed near neutral pH). The cell suspension and the peptide solution (FHR/RAD16-I) were mixed in a ratio of 1:5. The mixed solution were placed in the inserts and the cell culture medium was added to the insert to form the hydrogel. The cells were maintained by the maintenance medium (as described herein).
# Fluorescence observation of the cells. After 14 days of culture, the inserts were washed by PBS and then stained by Calcein AM solution (4 uM, Invitrogen). This solution stains the live cells by the green fluorescence when excited by 480 nm light.
# The RAD16-1 and FHR hydrogels in the insert was observed by confocal microscope. […] The bright areas show the cells presence. […] The quantitative measurement of proliferation and differentiation effects by the FHR peptide hydrogel were also evaluated (FIGS. 14-16A/B). […]
Substance,neurite outgrowth and synapse formation (neurons),Average score (degree of bone regeneration) ([1]; four weeks),Average score (degree of bone regeneration) ([1]; two weeks),angiogenesis inside and below the hydrogel [2],hepatocyte marker expression (Liver progenitor cells),effect to promote differentiation (osteocalcin) [3],3-Dimensional cell proliferation (MC3T3-E1 cells)
Ac(RADA)4-CONH2,able to serve as a substrate for neurite outgrowth and formation of functionally active synapses,1.0,3.0,no angiogenesis both inside and below the hydrogel,expressed markers indicative of hepatocyte phenotype,,
Ac(RADA)4GGFHRRIKA-CONH2 (Ac-RADARADARADARADAGGFHRRIKA-NH2) [FHR = 1% solution; FHR-2P = 2% solution],,,,,,not so strong,superior

# From patent US8022178B2, “Modified self-assembling peptides” (Massachusetts Institute of Technology, priority 2006, dated 2011)
